In ChEMBL document CHEMBL1125505, “Nucleosides and nucleotides. 112. 2-(1-Hexyn-1-yl)adenosine-5'-uronamides: a new entry of selective A2 adenosine receptor agonists with potent antihypertensive activity” (J Med Chem, 1992) one finds ED10, Ki and ED30 data, which are given here for 19 compounds.

Some results are limits rather than exact numbers.

Test [1] relates to Rattus norvegicus. As to the kind of experiment: Dose producing 10% decrease in heart rate of anesthetized spontaneously hypertensive rats (SHR's). The class given is functional.
For the next test, the target named is Adenosine A2 receptor (Rattus norvegicus, UniProt P29276+P30543). It is filed as protein assay.
Test [2] has as its system Rattus norvegicus. As to the kind of experiment: Dose producing 30% decrease in blood pressure of anesthetized spontaneously hypertensive rats (SHR's). It is filed as functional.
In a further test the target is T1, Adenosine receptor A1 (Rattus norvegicus, UniProt P25099).
T1 sequence (P25099 whole entry): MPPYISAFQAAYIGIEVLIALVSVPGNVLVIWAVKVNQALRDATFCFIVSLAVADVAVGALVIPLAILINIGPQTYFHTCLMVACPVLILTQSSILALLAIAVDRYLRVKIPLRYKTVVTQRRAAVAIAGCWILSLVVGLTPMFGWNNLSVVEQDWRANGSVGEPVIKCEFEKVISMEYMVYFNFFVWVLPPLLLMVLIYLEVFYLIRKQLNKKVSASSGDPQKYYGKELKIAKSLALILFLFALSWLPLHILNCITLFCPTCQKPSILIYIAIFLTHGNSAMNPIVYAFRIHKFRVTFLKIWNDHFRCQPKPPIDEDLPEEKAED
Put plainly: Binding affinity against adenosine A1 receptor from rat brain membranes using [3H]cyclohexyladenosine as radioligand.

Consider `CCCCC#Cc1nc(N)c2ncn([C@@H]3O[C@H](C(N)=O)[C@@H](O)[C@H]3O)c2n1`, for which, in the test on Rattus norvegicus [1], the ED10 is more than 100 µg/kg. For the same compound, the inhibitory constant (Ki) on Adenosine A2 receptor is 19 nM; on Adenosine receptor A1 it was 1270 nM. For the same compound, the ED30 in the test on Rattus norvegicus [2] amounted to 0.18 µg/kg.
For `CCCCC#Cc1nc(N)c2ncn([C@@H]3O[C@H](C(=O)NCC)[C@@H](O)[C@H]3O)c2n1` the same measures were more than 100 µg/kg, 4.8 nM, 276 nM and 0.3 µg/kg.
Taken in the same sequence, the figures for `CCCCC#Cc1nc(N)c2ncn(C3O[C@H](CNC(=O)NC)[C@@H](O)[C@H]3O)c2n1` (some centres undefined) were more than 100 µg/kg, more than 181 nM, more than 472 nM and more than 100 µg/kg.
For the compound `Nc1nc(Nc2ccccc2)nc2c1ncn2[C@@H]1O[C@H](CO)[C@@H](O)[C@H]1O`, the ED10 with Rattus norvegicus [1] is more than 100 µg/kg. In addition, at Adenosine A2 receptor, the Ki is recorded as 83 nM. This compound returned an ED30 in the test on Rattus norvegicus [2] of 6.1 µg/kg.
Turning to `CCCCC#Cc1nc(N)c2ncn(C3O[C@H](C(=O)NC)[C@@H](O)[C@H]3O)c2n1` (some centres undefined), in the test on Rattus norvegicus [1], the ED10 is more than 100 µg/kg. In addition, the results for the inhibitory constant (Ki) at Adenosine A2 receptor and on Adenosine receptor A1 were 11 nM and 1780 nM, respectively. Besides, in the test with Rattus norvegicus [2], the ED30 is 0.51 µg/kg.
On to `CCCCCCC#Cc1nc(N)c2ncn([C@@H]3O[C@H](CO)[C@@H](O)[C@H]3O)c2n1`, for which, in the test on Rattus norvegicus [1], the ED10 was more than 100 µg/kg. Moreover, the Ki on Adenosine A2 receptor worked out at 6.1 nM; at Adenosine receptor A1 it was 117 nM. This compound also came in with an ED30 in the test on Rattus norvegicus [2] of 0.35 µg/kg.
Taken in the same sequence, the figures for `CCCCC#Cc1nc(N)c2ncn([C@@H]3O[C@H](C(=O)NCCCC)[C@@H](O)[C@H]3O)c2n1` were more than 100 µg/kg, 169 nM, 1930 nM and 26.4 µg/kg.
Taken in the same sequence, the figures for `CCCCC#Cc1nc(N)c2ncn([C@@H]3O[C@H](C(=O)NC4CC4)[C@@H](O)[C@H]3O)c2n1` were 40.7 µg/kg, 2.6 nM, 136 nM and 0.17 µg/kg.
For `CCCCC#Cc1nc(N)c2ncn(C3O[C@H](CNC=O)[C@@H](O)[C@H]3O)c2n1` (some centres undefined) the same measures were more than 100 µg/kg, more than 181 nM, more than 472 nM and more than 100 µg/kg.
For `CCNC(=O)[C@H]1O[C@@H](n2cnc3c(N)ncnc32)[C@H](O)[C@@H]1O` [NECA], the ED10 in the test on Rattus norvegicus [1] came out at 0.35 µg/kg. In the test on Rattus norvegicus [2], this compound gave an ED30 of 0.23 µg/kg.
As for `CCCCC#Cc1nc(N)c2ncn([C@@H]3O[C@H](CO)[C@@H](O)[C@H]3O)c2n1`, the ED10 in the test on Rattus norvegicus [1] came out at 70.4 µg/kg. For the same compound, the ED30 with Rattus norvegicus [2] worked out at 0.11 µg/kg. Moreover, the Ki on Adenosine receptor A1 was determined as 103 nM.
In the test with Rattus norvegicus [1], `CCCCC#Cc1nc(N)c2ncn(C3O[C@H](C(=O)NCCC)[C@@H](O)[C@H]3O)c2n1` (some centres undefined) registered an ED10 of more than 100 µg/kg. The Ki at Adenosine A2 receptor was 44 nM; on Adenosine receptor A1, 1810 nM. Also, the ED30 in the test on Rattus norvegicus [2] stood at 2.88 µg/kg.
For `CCCCC#Cc1nc(N)c2ncn(C3O[C@H](C/N=C(\S)NC)[C@@H](O)[C@H]3O)c2n1` (some centres undefined) the same measures were more than 100 µg/kg, more than 181 nM, more than 472 nM and 54.5 µg/kg.
`CC(=O)O[C@]1(C(C)=O)CC[C@H]2[C@@H]3C=C(Cl)C4=CC(=O)[C@@H]5C[C@@H]5[C@]4(C)[C@H]3CC[C@@]21C` [CYPROTERONE ACETATE] gave an ED10 in the test on Rattus norvegicus [1] of 0.17 µg/kg. Also, the Ki at Adenosine A2 receptor stood at 336 nM. This compound showed an ED30 in the test with Rattus norvegicus [2] of 0.53 µg/kg.
As to `CCCCC#Cc1nc(N)c2ncn(C3O[C@H](CNS(C)(=O)=O)[C@@H](O)[C@H]3O)c2n1` (some centres undefined), the ED10 in the test with Rattus norvegicus [1] is more than 100 µg/kg. Further, the Ki on Adenosine A2 receptor was more than 181 nM; on Adenosine receptor A1 it was more than 472 nM. In addition, the ED30 with Rattus norvegicus [2] was more than 100 µg/kg.
In the test with Rattus norvegicus [1], `CCCCC#Cc1nc(N)c2ncn([C@@H]3O[C@H](CCl)[C@@H](O)[C@H]3O)c2n1` returned an ED10 of more than 3 µg/kg. In addition, the Ki on Adenosine A2 receptor turned out to be 5.2 nM; at Adenosine receptor A1, 217 nM. In the test on Rattus norvegicus [2], this compound showed an ED30 of more than 3 µg/kg.
In the test on Rattus norvegicus [1], `CCCCC#Cc1nc(N)c2ncn(C3O[C@H](CNC(C)=O)[C@@H](O)[C@H]3O)c2n1` (some centres undefined) displayed an ED10 of more than 100 µg/kg. The Ki was more than 181 nM at Adenosine A2 receptor and more than 472 nM on Adenosine receptor A1. In the test on Rattus norvegicus [2], this compound gave an ED30 of more than 100 µg/kg.
`CCNC(=O)[C@H]1O[C@@H](n2cnc3c(N)nc(NCCc4ccc(CCC(=O)O)cc4)nc32)[C@H](O)[C@@H]1O` [CGS-21680]: the ED10 in the test on Rattus norvegicus [1] is more than 100 µg/kg. In the test on Rattus norvegicus [2], this compound displayed an ED30 of 0.83 µg/kg.
For the compound `COc1cc(OC)cc(C(CNc2ncnc3c2ncn3[C@@H]2O[C@H](CO)[C@@H](O)[C@H]2O)c2ccccc2C)c1` (some centres undefined), the ED10 in the test with Rattus norvegicus [1] was more than 100 µg/kg. Besides, the results for the Ki on Adenosine A2 receptor and on Adenosine receptor A1 were 4.6 nM and 64 nM, respectively. Moreover, the ED30 with Rattus norvegicus [2] was determined as 12.3 µg/kg.

One may read the Ki as the dissociation constant of the complex between target and ligand, obtained from inhibition or displacement. A lower Ki goes with tighter binding.
